{"source": "paper PMC10847966", "about": "(Nature chemical biology, 2023)", "key": {"MthK [1]": {"biological_target": "MthK (Methanothermobacter thermautotrophicus, UniProt O27564, A88F)", "experiment": "single-particle cryo-EM structure", "assay_type": "binding"}, "MthK [2]": {"biological_target": "MthK (Methanothermobacter thermautotrophicus, UniProt O27564, A90L)", "experiment": "stopped-flow Tl+ flux assay in liposomes", "assay_type": "biochemical"}, "MthK [3]": {"biological_target": "MthK (Methanothermobacter thermautotrophicus, UniProt O27564, V91F)", "experiment": "stopped-flow Tl+ flux assay in liposomes", "assay_type": "biochemical"}}, "data": [{"smiles": "CCCCC[N+](CCCCC)(CCCCC)CCCCC", "note": "[TPeA]", "values": [{"measurement": "single-particle cryo-EM structure", "setting": "MthK [1]", "value": "Processing workflow for A88F-TPeA dataset, TPeA densities in the maps with C4 symmetry (mesh), TPeA molecule (stick)"}, {"measurement": "IC50", "setting": "MthK [2]", "value": 9.7, "unit": "µM"}, {"measurement": "IC50", "setting": "MthK [3]", "value": 2.05, "unit": "µM"}]}]}
